Here are results for 4 molecules from patent US20240285587A1, “NOVEL THERAPEUTIC AGENT THAT SUPPRESSES METASTASIS AND PROLIFERATION OF OSTEOSARCOMA AND GLIOMA” (JAPANESE FOUNDATION FOR CANCER RESEARCH, priority 2021, published 2024).

Entries after “also recorded” stand apart in the source; their conditions may differ.

Series [1] deals with human glioblastoma cells Onda7, YKG-1, and 42-MG-BA. Briefly: Glioblastoma cell viability with LPAR1 antagonists, CellTiter-Gro. Format: cell-based. Particulars: different concentrations, 72 hours; Onda7, YKG-1, 42-MG-BA. How it is done: Next, examination was carried out to determine whether LPAR1 antagonists had effects on viabilities of glioblastoma cells. On a 96-well plate, 1500 to 3000 cells of each of the human glioblastoma cells Onda7, YKG-1, and 42-MG-BA were seeded and treated with any of the LPAR1 antagonists Ki16425, BMS-986020, and ONO-7300243 in different concentrations, and the cell viabilities 72 hours thereafter were determined with CellTiter-Gro reagent (FIG. 10A).

The subject of the next series is Onda7 cells. Briefly: Glioblastoma intracranial xenograft model (Onda7 with Akaluc luciferase), IVIS imaging. In kind it is in vivo, mouse. Particulars: oral 50 mg/kg or 100 mg/kg, 5 days on/2 days off from 3 weeks after transplantation; from 2 weeks after initiation, even for 50 mg/kg. The procedure: Examination was carried out to determine whether an LPAR1 antagonist exerts antitumor effect even for glioblastoma. Into each female SCID-beige mouse, 2×10^5 Onda7 cells with Akaluc luciferase introduced therein were intracranially transplanted. Three weeks after the transplantation, oral administration according to a dosing schedule of continuous administration of the LPAR1 antagonist BMS-986020 of 50 mg/kg or 100 mg/kg for 5 consecutive days and withdrawal for 2 days was initiated (FIG. 11A). For tumor volume, the enzymatic activity of AkaLuc luciferase stably expressed in Onda7 cells was quantified with an IVIS imaging system (FIG. 11B).

For another series, the system named is osteosarcoma cells G-292. The series can be described thus: Osteosarcoma G-292 subcutaneous xenograft model, tumor volume. Particulars: oral 30 mg/kg, 5 consecutive days and withdrawal for 2 days from Day 1, from Day 14, SCID-beige mouse. Format: in vivo. The procedure:
Into each female SCID-beige mouse, 8.2×10^5 cells of the osteosarcoma cells G-292 were subcutaneously transplanted (Day 0), and on the day after the transplantation (Day 1) oral administration according to a dosing schedule of continuous administration of the LPAR1 antagonist BMS-986020 of 30 mg/kg for 5 consecutive days and withdrawal for 2 days was initiated (FIG. 8A). The proliferation of tumor was analyzed by measuring the major axis and minor axis of tumor and calculating the tumor volume as major axis (mm)×[minor axis (mm)]^2×½.

For a further series, the system named is G-292 and MG-63 cells. The series can be described thus: Cell viability / cytotoxicity of osteosarcoma cells with Ki16425 (FIG. 3E). In kind it is cell-based, human. How it is done: (§1) In addition, analysis of invasive ability was carried out by using a Matrigel Invasion Chamber in the same manner as for FIG. 1C (FIG. 3D). […] Accordingly, the reduction in migration ability and invasive ability due to Ki16425 was confirmed not to be caused by cytotoxicity to the cells.

A further series has as its target LPAR2 (Homo sapiens, UniProt Q9HBW0). Particulars: cited from earlier work.
Series [2] deals with osteosarcoma cells MG-63, HuO9, and G-292. The series can be described thus: Matrigel Invasion Chamber invasive ability of osteosarcoma cells with platelet releasate. Format: cell-based, human. Particulars: cells treated with Ki16425 in advance (100 nM), platelet releasate in underlying chamber, 22 to 24 hours. The procedure: The osteosarcoma cells MG-63, HuO9, and G-292 were each seeded in an insert (upper chamber) of a Matrigel Invasion Chamber (Corning Incorporated) at 1.5×10^5 cells/0.5 mL with the platelet releasate put in the lower chamber, and left to stand at 37° C. for 22 to 24 hours, and then cells on the top surface of the insert were completely wiped away, fixation was performed with 4% paraformaldehyde, and cells on the bottom surface of the membrane of the insert, i.e., invaded cells were stained with 1% crystal violet (FIG. 1B).
as §1

A further series concerns the target LPAR1 (Homo sapiens, UniProt Q92633). Particulars: cited from earlier work.
For series [3], the system named is MG-63, HuO9, or G-292 cells. The series can be described thus: Transwell chamber migration ability of osteosarcoma cells with LPA as chemoattractant. Format: cell-based, human. Particulars: 4 to 6 hours, MG-63, HuO9, G-292. The procedure:
Next, the influence of LPA on migration ability and invasive ability was analyzed (FIG. 3C). Analysis of migration ability was carried out by using a Transwell chamber (Corning Incorporated, 8.0 μm pore). In an insert, 1×10^5 MG-63, HuO9, or G-292 cells suspended in 0.3 mL of serum-free MEM medium were seeded with 10 nM LPA as a chemoattractant in 1.25 mL of serum-free MEM medium put in the lower chamber, left to stand for 4 to 6 hours and then fixed, and subjected to analysis of migration ability (LPA). Separately, cells after being pretreated with 100 nM Ki16425 (Santa Cruz Biotechnology, Inc.), which is an LPAR antagonist, for 1 hour were collected, seeded in an insert, and subjected to analysis of migration ability in the presence of 100 nM Ki16425 (LPA+Ki16425).

In series [4] the test system is human glioblastoma cells Onda7, YKG-1, and 42-MG-BA. Briefly: Transwell chamber migration ability of glioblastoma cells with LPA. Format: cell-based. Particulars: 24 hours. How it is done:
Accordingly, the effects of LPAR1 antagonists to suppress metastasis and cell proliferation are also expected to be exerted for glioma. In view of the fact that glioblastoma is the highest malignancy tumor among gliomas as described above, migration ability with addition of LPA was analyzed with glioblastoma cell strains. Analysis was performed to determine whether the mobility of glioblastoma cells is augmented in the presence of LPA. In a Transwell chamber, the human glioblastoma cells Onda7 (obtained from JCRB Cell Bank), YKG-1 (obtained from JCRB Cell Bank), and 42-MG-BA (obtained from DSMZ) were seeded at 1×10^5 cells each, with addition of 100 nM LPA as a migration factor to the underlying chamber, and 24 hours thereafter cells that migrated to the underlying chamber were stained with crystal violet and quantified. Before being collected, the cells were pretreated with 100 nM Ki16425, which is an LPAR antagonist, for 1 hour, and subjected to analysis of migration ability still in the presence of 100 nM Ki16425.

A further series deals with T1, LPAR3 (Homo sapiens, UniProt Q9UBY5).
T1 sequence (Q9UBY5 1-353): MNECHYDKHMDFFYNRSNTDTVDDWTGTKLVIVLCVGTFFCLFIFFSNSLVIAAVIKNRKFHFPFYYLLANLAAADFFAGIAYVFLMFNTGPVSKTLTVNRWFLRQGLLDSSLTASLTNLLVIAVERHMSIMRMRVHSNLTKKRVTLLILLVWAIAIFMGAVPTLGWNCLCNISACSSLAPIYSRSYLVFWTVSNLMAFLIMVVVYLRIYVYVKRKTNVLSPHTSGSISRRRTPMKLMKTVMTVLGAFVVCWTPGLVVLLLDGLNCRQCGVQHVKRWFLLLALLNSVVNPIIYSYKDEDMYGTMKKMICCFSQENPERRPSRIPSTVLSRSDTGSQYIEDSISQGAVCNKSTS
Particulars: cited from earlier work.

Another series relates to HuO9/Akaluc cells. The series can be described thus: Lung metastasis mouse model, intravenously injected HuO9/Akaluc cells, bioluminescent imaging. In kind it is in vivo. How it is done:
Into each female SCID-beige mouse (C.B-lgh-1b/GbmsTac-Prkdc^scid-Lyst^bgN7, Charles River Laboratories Japan, Inc.), 1×10^6 MG-63/Akaluc/sgCTRL or MG-63/Akaluc/sgLPAR #1 cells were intravenously injected, 3 hours and 7 days after, 100 μL of 5 mM AkaLumine-HCL was intraperitoneally injected and in vivo luminescence imaging (bioluminescent imaging, BLI) was carried out. The BLI was carried out by using an IVIS imaging system (PerkinElmer, Inc.). […] On the day of intravenous injection of cells (Day 0), the both types of cells were captured in lungs to the same degree.
Next, effects of an LPAR1 antagonist was examined. Analysis with a mouse model was carried out by using ONO-7300243 (Cayman Chemical Company), which is one of LPAR1 inhibitors. […] In the experiment, ONO-7300243 was used at different doses of 10 mg/kg and 30 mg/kg.
The BLI was carried out for 1.5 to 3 hours, 1 day, and 2 days after the administration (FIG. 6B). Immediately after the administration, it was observed that HuO9/Akaluc cells were captured in lungs at any dose.

The next series concerns MG-63 cells. The series can be described thus: Immunostaining of phosphorylated AKT and F-actin in LPA-treated osteosarcoma cells. Format: cell-based, human. Particulars: 100 nM LPA for 4 hours, serum-free MEM. The procedure: LPA receptors are G-protein-coupled receptors, and LPAR1 is known to activate three G proteins, Gαi/0, Gαq/11, and Gα12/13, and to activate a signal transduction system including a PI3K/AKT pathway. MG-63 cells were cultured with serum-free MEM medium overnight, then treated with 100 nM LPA for 4 hours, immunostained through a conventional method with an anti-phosphorylated AKT antibody (an antibody to detect phosphorylation of S473), rhodamine-labeled phalloidin (for binding to F actin), and Hoechst 33342 (for staining nuclei), and observed with a microscope (FIG. 3B). […] Although results are not shown herein, time-lapse analysis with a microscope was carried out to analyze effects of LPA on osteosarcoma cells, and it was observed that osteosarcoma cells formed numerous protrusions (pseudopodia) as a result of the LPA treatment.

Chain of LPAR1 (Q92633 whole entry, species assumed): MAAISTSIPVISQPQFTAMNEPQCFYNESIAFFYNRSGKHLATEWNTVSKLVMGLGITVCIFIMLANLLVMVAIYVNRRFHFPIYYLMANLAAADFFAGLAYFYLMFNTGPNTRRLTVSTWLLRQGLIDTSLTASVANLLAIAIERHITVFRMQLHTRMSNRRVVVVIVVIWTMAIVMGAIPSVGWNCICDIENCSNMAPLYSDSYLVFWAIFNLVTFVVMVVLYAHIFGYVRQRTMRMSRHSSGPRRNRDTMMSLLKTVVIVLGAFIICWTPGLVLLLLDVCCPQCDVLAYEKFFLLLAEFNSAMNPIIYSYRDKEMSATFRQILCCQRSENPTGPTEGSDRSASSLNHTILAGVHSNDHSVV
Chain of LPAR2 (Q9HBW0 whole entry, species assumed): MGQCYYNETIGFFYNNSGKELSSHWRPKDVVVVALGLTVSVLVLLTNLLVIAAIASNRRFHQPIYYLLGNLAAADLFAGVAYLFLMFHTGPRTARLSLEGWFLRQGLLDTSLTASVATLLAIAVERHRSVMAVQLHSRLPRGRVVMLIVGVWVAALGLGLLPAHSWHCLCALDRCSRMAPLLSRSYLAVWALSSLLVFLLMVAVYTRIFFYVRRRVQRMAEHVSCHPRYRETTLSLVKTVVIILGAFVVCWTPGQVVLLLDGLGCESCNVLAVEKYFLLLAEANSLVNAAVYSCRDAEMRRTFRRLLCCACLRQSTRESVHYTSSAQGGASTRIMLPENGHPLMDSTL

For the molecule `Cc1noc(-c2ccc(-c3ccc(C4(C(=O)O)CC4)cc3)cc2)c1NC(=O)O[C@H](C)c1ccccc1` [BMS-986020], in [1], the cell viabilities result is reported as “Reduced cell viabilities”. Also, the “proliferation of glioblastoma cells / relative tumor volume” value in the series with Onda7 cells is recorded as “almost comparable to that at the transplantation”. Also, the “tumor volume / tumor proliferation” value with osteosarcoma cells G-292 (30 mg/kg) is “significant tumor proliferation-suppressing effect”; with osteosarcoma cells G-292 (listed as BMS986020, 30 mg/kg), “tumor proliferation is suppressed”.

In the case of `Cc1noc(-c2ccc(CSCCC(=O)O)cc2)c1NC(=O)OC(C)c1ccccc1Cl` (stereo not drawn) [Ki16425], in the series with G-292 and MG-63 cells (100 nM, 4 to 6 hours (migration) or 22 to 24 hours (invasion)), the cytotoxicity result is on record as “no cytotoxicity was found”. Also, the cell viabilities result in the series with G-292 and MG-63 cells (cultured for 72 hours, Ki16425 at 500 nM or more, G-292 and MG-63) is reported as “reduced cell viabilities”; in [1], “Reduced cell viabilities”. For the same molecule, on LPAR2, the “inhibitory effect to LPAR2” value is on record as “exhibits inhibitory effect”. For the same molecule, the invasive ability entry in series [2] is “cancellation of the effects of platelet releasate; also recorded: largely reduced invasive ability”. Moreover, the “inhibitory effect to LPAR1” value on LPAR1 is reported as “exhibits inhibitory effect”. Further, the migration ability entry in series [3] (100 nM Ki16425 (1 hour pretreatment and during assay), 10 nM LPA in lower chamber) was “cancellation of the effects of LPA; also recorded: largely reduced migration ability”; in series [4] (100 nM Ki16425 (1 hour pretreatment and during assay), 100 nM LPA), “largely reduced migration ability”. The “inhibitory effect to LPAR3” value at LPAR3 is “exhibits inhibitory effect”.

For `COc1cc(C(=O)N(CCCc2ccccc2)Cc2ccc(CC(=O)O)cc2)cc(OC)c1C` [ONO-7300243], the cell viabilities result in series [1] is “Reduced cell viabilities”. Also, the “Total Flux measured with the IVIS” value is given as “significant difference” with HuO9/Akaluc cells (Day 1, 30 mg/kg administration group vs solvent administration group); “significant difference” in the series on HuO9/Akaluc cells (Day 2, 10 mg/kg administration group vs 30 mg/kg administration group); “no significant difference” in the series on HuO9/Akaluc cells (day of injection of cells, among the groups). Also, in the series on HuO9/Akaluc cells (oral 10 mg/kg and 30 mg/kg before i.v. HuO9/Akaluc cells, a day or two later, vs solvent administration group), the “osteosarcoma cells captured in lungs (BLI) / lung metastasis” value is “lung metastasis is suppressed; also recorded: reduction of osteosarcoma cells captured in lungs”.

Consider lysophosphatidic acid [LPA], for which, in the series on MG-63 cells, the “phosphorylated AKT (S473)” value is reported as “Activated AKT was found”. In addition, the “migration ability (effect of LPA)” value in [3] (10 nM LPA as chemoattractant) was “migration ability largely enhanced”; in series [4] (100 nM LPA as migration factor) it was “migration ability was largely enhanced”.
